In ChEMBL document CHEMBL1128923, “A simple synthesis of biaryl phospholipase A2 inhibitors: Probing hydrophobic effects” (Bioorg Med Chem Lett, 1996):

How the values were obtained:
[1] = target: T1, Phospholipase A2, membrane associated (Homo sapiens, UniProt P14555); assay: Compound was evaluated for inhibition of human platelet phospholipase A2 (HP-PLA2).
T1 sequence (P14555 whole entry): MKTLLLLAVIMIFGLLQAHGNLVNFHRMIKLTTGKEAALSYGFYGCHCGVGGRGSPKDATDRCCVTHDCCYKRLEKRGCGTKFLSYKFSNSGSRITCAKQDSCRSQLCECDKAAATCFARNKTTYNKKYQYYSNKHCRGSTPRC

[2] = test system: Mus musculus; assay: Effective dose to reduce mouse ear edema in a phorbol ester induced inflammation assay; type: functional
[3] = target: T2, Phospholipase A2, membrane associated (Homo sapiens) (UniProt P14555); assay: Compound was evaluated for inhibition of phospholipase A2 (PLA2) isolated from human platelets at a concentration of 10 uM
T2 sequence (whole entry): T1 sequence (P14555 whole entry)

[4] = target: T2, Phospholipase A2, membrane associated (Homo sapiens); assay: Compound was evaluated for inhibition of phospholipase A2 (PLA2) isolated from human platelets at a concentration of 100 uM

Row | IC50 [1] [µM] | inhibition [3] [%] | inhibition [4] [%] | SMILES | ED50 [2] [ug ear-1]
1 | – | 2 | 8 | O=C(O)c1ccccc1-c1ccccc1C(=O)Nc1ccc2ccccc2c1 | –
2 | – | 26 | 92 | CCCCCCCCCCc1ccc(NC(=O)c2ccccc2-c2ccccc2C(=O)O)cc1 | –
3 | – | 0 | 0 | O=C(O)c1ccccc1-c1ccccc1C(=O)NCCc1c[nH]c2ccc(O)cc12 | –
4 | – | 14 | 35 | CC1(C)CCC(C)(C)c2cc(NC(=O)c3ccccc3-c3ccccc3C(=O)O)ccc21 | –

Continued, compound first:

Row | SMILES | IC50 [1] [µM] | inhibition [3] [%] | inhibition [4] [%] | ED50 [2] [ug ear-1]
5 | CC1=C(/C=C/C(C)=C/C=C(/C(C)=C/C(=O)O)c2cccc(C(=O)O)c2)C(C)(C)CCC1 | 40 | – | – | 160
6 | CC(C)c1ccc2c(c1)CC[C@H]1C[C@](C)(CNC(=O)c3ccccc3-c3ccccc3C(=O)O)CC[C@]21C | – | 6 | 63 | –
7 | O=C(O)c1ccccc1-c1ccccc1C(=O)NC1CCCCCCC1 | – | 2 | 15 | –
8 | CCCCCCCCCCOc1ccc(NC(=O)c2ccccc2-c2ccccc2C(=O)O)cc1OCCCCCCCCCC | – | 85 | 98 | –
9 | CCCCCCCCCCOc1ccc(NC(=O)c2ccccc2-c2ccccc2C(=O)O)cc1OCC(=O)O | – | 2 | 23 | –
